Experimental findings from patent publication US20250346592A1 (Celgene Corporation, priority 2022, published 2025) are described below.

A value given as a limit tells only on which side of the number the result lay.

Chain of hPAD4 enzyme (Q9UM07 whole entry): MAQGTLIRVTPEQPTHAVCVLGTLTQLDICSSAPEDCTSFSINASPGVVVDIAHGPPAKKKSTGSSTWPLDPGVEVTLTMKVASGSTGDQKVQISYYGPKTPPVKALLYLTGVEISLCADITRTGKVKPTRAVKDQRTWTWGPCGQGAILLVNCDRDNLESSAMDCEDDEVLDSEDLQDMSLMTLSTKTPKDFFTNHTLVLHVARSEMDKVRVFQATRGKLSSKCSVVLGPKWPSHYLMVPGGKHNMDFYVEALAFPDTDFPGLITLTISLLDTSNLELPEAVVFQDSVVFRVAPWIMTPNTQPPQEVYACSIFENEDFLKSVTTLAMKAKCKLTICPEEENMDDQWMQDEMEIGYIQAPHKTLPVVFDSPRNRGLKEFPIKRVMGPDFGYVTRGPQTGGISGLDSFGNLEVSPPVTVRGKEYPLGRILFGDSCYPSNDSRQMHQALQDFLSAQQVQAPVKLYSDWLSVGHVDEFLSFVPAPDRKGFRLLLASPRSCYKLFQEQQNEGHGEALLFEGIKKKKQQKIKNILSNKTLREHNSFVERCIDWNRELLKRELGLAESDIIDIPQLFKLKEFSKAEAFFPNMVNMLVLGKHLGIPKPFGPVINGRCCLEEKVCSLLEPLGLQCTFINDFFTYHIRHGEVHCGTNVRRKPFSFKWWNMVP

The target of the experiment is hPAD4 enzyme (Homo sapiens (Human), UniProt Q9UM07). The experiment is described as follows: RFMS2 assay (RapidFire mass spectrometry, TSTGGRQGSHH peptide substrate). In kind it is biochemical. The following applies: 35 nM recombinant human PAD4, 500 μM TSTGGRQGSHH peptide, 30 minutes at room temperature; read-out: RFMS 2 IC50. How it is done:
Stock compounds were dissolved and stored in 100% DMSO. Compound solutions were prepared via serial dilution at 3-fold intervals in DMSO with top compound concentration at 20 μM in each assay. 0.25 μl of compound solution was transferred from the compound plate to the assay plate by using an acoustic dispenser.
• Total reaction volume: 25 μl • Assay buffer: […] pH 7.4, 200 mM NaCl, 2 mM CaCl2, 5 mM DTT • 35 nM recombinant human PAD4 • 500 μM TSTGGRQGSHH peptide • 1.2% DMSO • Stop solution: 10% formic acid
Reaction mixtures were incubated at room temperature for 30 minutes. 10 μl each of the reaction mixtures was then mixed with 40 μl of 10% formic acid in a microtiter plate. The plate was frozen at −80° C. before shipping out on dry ice for RapidFire mass spectroscopy analysis.
Thawed samples were loaded onto the Rapid Fire 300 system (Agilent) wherein they were first sipped for 250 ms and then loaded onto a Agilent “C” (C18) cartridge using a mobile phase of water containing 0.09% formic acid/0.01% trifluoroacetic acid for 3000 ms desalting flowing at a rate of 1.5 ml/min. Once the samples were loaded and washed, a mobile phase of acetonitrile containing 0.09% formic acid/0.01% trifluoroacetic acid was used to elute the samples directly onto a Sciex API4000 triple quadrupole mass spectrometer for 3000 ms at a flow rate of 1.25 ml/min.
MRM transitions for substrate and product were monitored in positive ESI mode at m/z=562.3/969.7 and m/z=562.8/541.3 respectively. The dwell time for each transition was set at 100 ms, and the ESI voltage was used at 5500 with a source temperature of 650° C. Extracted ion peaks for each transition were integrated using the Rapid Fire Integrator software.
Compounds having an activity designated as “A” provided an IC50≤10 nM; compounds having an activity designated as “B” provided an IC50 11-100 nM; compounds having an activity designated as “C” provided an IC50 101-500 nM; compounds having an activity designated as “D” provided an IC50 501-1000 nM; compounds having an activity designated as “E” provided an IC50>1000 nM.
As usually defined, the IC50 is the point on the concentration scale where inhibition reaches its midpoint. As for `COc1nccc2cc(-c3nc4cc5c(cc4n3C)CCN(C[C@@H](C)N)C5=O)n(CC3CC3)c12` [Example 31, (R)-6-(2-aminopropyl)-2-(1-(cyclopropylmethyl)-7-methoxy-1H-pyrrolo[2,3-c]pyridin-2-yl)-1-methyl-1,6,7,8-tetrahydro-5H-imidazo[4,5-g]isoquinolin-5-one], the IC50 is 501 to 1000 nM. For the compound `C[C@@H](N)CN1CCc2cc3c(cc2C1=O)nc(-c1cc2ccc(C#N)cc2n1CC1CC1)n3C` [Example 32], the IC50 lay within 101 to 500 nM. In the case of `C[C@@H](N)CN1CCc2cc3c(cc2C1=O)nc(-c1cc2cccc(Cl)c2n1CC1CC1)n3C` [Example 33, (R)-6-(2-aminopropyl)-2-(7-chloro-1-(cyclopropylmethyl)-1H-indol-2-yl)-1-methyl-1,6,7,8-tetrahydro-5H-imidazo[4,5-g]isoquinolin-5-one] it was 101 to 500 nM; in that of `C[C@@H](N)CN1CCc2cc3c(cc2C1=O)nc(-c1cc2cc(Cl)ccc2n1CC1CC1)n3C` [Example 34, (R)-6-(2-aminopropyl)-2-(5-chloro-1-(cyclopropylmethyl)-1H-indol-2-yl)-1-methyl-1,6,7,8-tetrahydro-5H-imidazo[4,5-g]isoquinolin-5-one], 501 to 1000 nM. Next, `C[C@@H](N)CN1CCc2cc3c(cc2C1=O)nc(-c1cc2cccc(C(F)(F)F)c2n1CC1CC1)n3C` [Example 36, (R)-6-(2-aminopropyl)-2-(1-(cyclopropylmethyl)-7-(trifluoromethyl)-1H-indol-2-yl)-1-methyl-1,6,7,8-tetrahydro-5H-imidazo[4,5-g]isoquinolin-5-one]: 501 to 1000 nM. Next, `CN[C@H](C)CN1CCc2cc3c(cc2C1=O)nc(-c1cc2cccc(OC)c2n1CC1CC1)n3C` [Example 37, (R)-2-(1-(cyclopropylmethyl)-7-methoxy-1H-indol-2-yl)-1-methyl-6-(2-(methylamino)propyl)-1,6,7,8-tetrahydro-5H-imidazo[4,5-g]isoquinolin-5-one]: 101 to 500 nM. As to `CC(C)c1ccc2cc(-c3nc4cc5c(cc4n3C)CCN(C[C@@H](C)N)C5=O)n(CC3CC3)c2c1` [Example 38, (R)-6-(2-aminopropyl)-2-(1-(cyclopropylmethyl)-6-isopropyl-1H-indol-2-yl)-1-methyl-1,6,7,8-tetrahydro-5H-imidazo[4,5-g]isoquinolin-5-one], the IC50 lay within 101 to 500 nM. For the compound `CCc1ccc2cc(-c3nc4cc5c(cc4n3C)CCN(C[C@@H](C)N)C5=O)n(CC3CC3)c2c1` [Example 39, (R)-6-(2-aminopropyl)-2-(1-(cyclopropylmethyl)-6-ethyl-1H-indol-2-yl)-1-methyl-1,6,7,8-tetrahydro-5H-imidazo[4,5-g]isoquinolin-5-one], the IC50 was in the range of 101 to 500 nM.

In the case of `C[C@@H](N)CN1CCc2cc3c(cc2C1=O)nc(-c1cc2ccc(C4COC4)cc2n1CC1CC1)n3C` [Example 42, (R)-6-(2-aminopropyl)-2-(1-(cyclopropylmethyl)-6-(oxetan-3-yl)-1H-indol-2-yl)-1-methyl-1,6,7,8-tetrahydro-5H-imidazo[4,5-g]isoquinolin-5-one], the IC50 lay in the range of 501 to 1000 nM.

With `C[C@@H](N)CN1CCc2cc3c(cc2C1=O)nc(-c1cc2ccc(Cl)nc2n1CC1CC1)n3C` [Example 43, (R)-6-(2-aminopropyl)-2-(6-chloro-1-(cyclopropylmethyl)-1H-pyrrolo[2,3-b]pyridin-2-yl)-1-methyl-1,6,7,8-tetrahydro-5H-imidazo[4,5-g]isoquinolin-5-one], the IC50 lay within 101 to 500 nM. For the compound `COc1ccc2cc(-c3nc4cc5c(cc4n3C)CCN(C[C@@H](C)N)C5=O)n(CC3CC3)c2n1` [Example 44, (R)-6-(2-aminopropyl)-2-(1-(cyclopropylmethyl)-6-methoxy-1H-pyrrolo[2,3-b]pyridin-2-yl)-1-methyl-1,6,7,8-tetrahydro-5H-imidazo[4,5-g]isoquinolin-5-one], the IC50 is 101 to 500 nM. On to `C[C@@H](N)CN1CCc2cc3c(cc2C1=O)nc(-c1cc2ccc(=O)[nH]c2n1CC1CC1)n3C` [Example 45, (R)-6-(2-aminopropyl)-2-(1-(cyclopropylmethyl)-6-oxo-6,7-dihydro-1H-pyrrolo[2,3-b]pyridin-2-yl)-1-methyl-1,6,7,8-tetrahydro-5H-imidazo[4,5-g]isoquinolin-5-one], for which the IC50 was greater than 1000 nM.

As for `C[C@@H](N)CN1CCc2cc3c(cc2C1=O)nc(-c1c(F)c2ccccc2n1CC1CC1)n3C` [Example 46, (R)-6-(2-aminopropyl)-2-(1-(cyclopropylmethyl)-3-fluoro-1H-indol-2-yl)-1-methyl-1,6,7,8-tetrahydro-5H-imidazo[4,5-g]isoquinolin-5-one], the IC50 lay within 501 to 1000 nM. For `Cc1ccc2cc(-c3nc4cc5c(cc4n3C)CCN(C[C@H](N)CF)C5=O)n(CC3CC3)c2c1` [Example 47, (S)-6-(2-amino-3-fluoropropyl)-2-(1-(cyclopropylmethyl)-6-methyl-1H-indol-2-yl)-1-methyl-1,6,7,8-tetrahydro-5H-imidazo[4,5-g]isoquinolin-5-one], the IC50 was in the range of 101 to 500 nM. In the case of `Cn1c(-c2cc3cccnc3n2CC2CC2)nc2cc3c(cc21)CCN(C[C@H](N)CF)C3=O` [Example 49, (S)-6-(2-amino-3-fluoropropyl)-2-(1-(cyclopropylmethyl)-1H-pyrrolo[2,3-b]pyridin-2-yl)-1-methyl-1,6,7,8-tetrahydro-5H-imidazo[4,5-g]isoquinolin-5-one] it was greater than 1000 nM. As to `COc1ccc2cc(-c3nc4cc5c(cc4n3C)CCN(C[C@H](N)CF)C5=O)n(CC3CC3)c2c1` [Example 50, (S)-6-(2-amino-3-fluoropropyl)-2-(1-(cyclopropylmethyl)-6-methoxy-1H-indol-2-yl)-1-methyl-1,6,7,8-tetrahydro-5H-imidazo[4,5-g]isoquinolin-5-one], the IC50 lay within 101 to 500 nM.

As for `CC(C)c1ccc2cc(-c3nc4cc5c(cc4n3C)CCN(C[C@H](N)CF)C5=O)n(CC3CC3)c2c1` [Example 51, (S)-6-(2-amino-3-fluoropropyl)-2-(1-(cyclopropylmethyl)-6-isopropyl-1H-indol-2-yl)-1-methyl-1,6,7,8-tetrahydro-5H-imidazo[4,5-g]isoquinolin-5-one], the IC50 lay in the range of 101 to 500 nM. Take `Cn1c(-c2cc3ccncc3n2CC2CC2)nc2cc3c(cc21)CCN(C[C@H](N)CF)C3=O` [Example 52, (S)-6-(2-amino-3-fluoropropyl)-2-(1-(cyclopropylmethyl)-1H-pyrrolo[2,3-c]pyridin-2-yl)-1-methyl-1,6,7,8-tetrahydro-5H-imidazo[4,5-g]isoquinolin-5-one]: the half-maximal inhibitory concentration (IC50) was greater than 1000 nM. `COc1nccc2cc(-c3nc4cc5c(cc4n3C)CCN(C[C@H](N)CF)C5=O)n(CC3CC3)c12` [Example 54, (S)-6-(2-amino-3-fluoropropyl)-2-(1-(cyclopropylmethyl)-7-methoxy-1H-pyrrolo[2,3-c]pyridin-2-yl)-1-methyl-1,6,7,8-tetrahydro-5H-imidazo[4,5-g]isoquinolin-5-one]: the IC50 was in the range of 501 to 1000 nM. Next, `Cn1c(-c2cc3ccc(C(C)(C)C)cc3n2CC2CC2)nc2cc3c(cc21)CCN(C[C@H](N)CF)C3=O` [Example 55, (S)-6-(2-amino-3-fluoropropyl)-2-(6-(tert-butyl)-1-(cyclopropylmethyl)-1H-indol-2-yl)-1-methyl-1,6,7,8-tetrahydro-5H-imidazo[4,5-g]isoquinolin-5-one]: 501 to 1000 nM.
